# Key:
# Botrytis cinerea = assay: Test B: gray mold, preventive spray on tomato seedlings; conditions: 10 ppm; gray mold on tomato; 100 = 100% disease control, 0 = no control
# Zymoseptoria tritici = assay: Test E: wheat leaf blotch, preventive spray on wheat seedlings; conditions: 10 ppm; wheat leaf blotch; 100 = 100% disease control, 0 = no control
# Stagonospora nodorum = assay: Test D: wheat glume blotch, preventive spray on wheat seedlings; conditions: 10 ppm; wheat glume blotch; 100 = 100% disease control, 0 = no control
# [1] = system: Erysiphe graminis f sp. tritici; assay: Test G: wheat powdery mildew, preventive spray on wheat seedlings; conditions: 10 ppm; wheat powdery mildew; 100 = 100% disease control, 0 = no control
# [2] = system: Puccinia recondita f sp. tritici; assay: Test F: wheat leaf rust, preventive spray on wheat seedlings; conditions: 10 ppm; wheat leaf rust; 100 = 100% disease control, 0 = no control
Structure (SMILES),Test B rating (% disease control) (Botrytis cinerea) [%],Test E rating (% disease control) (Zymoseptoria tritici) [%],Test D rating (% disease control) (Stagonospora nodorum) [%],Test G rating (% disease control) [1] [%],Test F rating (% disease control) [2] [%]
"CC(C)(C)CC(O)(Cn1cncn1)C1=NOC(COc2ccc(Br)cc2)C1 (single isomer, unassigned) [Compound 171]",0,0,63,94,100
"CC(C)(C)CC(O)(Cn1cncn1)C1=NOC(COc2ccc(Cl)cc2)C1 (single isomer, unassigned) [Compound 172]",0,4,100,99,100
"CC(C)(C)CC(O)(Cn1cncn1)C1=NOC(COc2ccc(Cl)cc2)C1 (single isomer, unassigned) [Compound 173]",0,6,63,97,100
"OC(Cn1cncn1)(C1=NOC(c2cccc(Oc3ccccc3)c2)C1)c1ccc(Cl)cc1 (single isomer, unassigned) [Compound 176]",0,2,82,100,100
"OC(Cn1cncn1)(C1=NOC(c2cccc(Oc3ccccc3)c2)C1)c1ccc(Cl)cc1 (single isomer, unassigned) [Compound 177]",0,0,51,89,0
"OC(Cn1cncn1)(C1=NOC(c2ccc(Br)cc2)C1)c1ccc(Cl)cc1 (single isomer, unassigned) [Compound 178]",0,91,99,100,100
"OC(Cn1cncn1)(C1=NOC(c2ccc(Br)cc2)C1)c1ccc(Cl)cc1 (single isomer, unassigned) [Compound 179]",0,0,0,91,100
"OC(Cn1cncn1)(C1=NOC(c2ccc(Cl)cc2)C1)c1ccc(Br)cc1 (single isomer, unassigned) [Compound 180]",0,1,99,100,100
"OC(Cn1cncn1)(C1=NOC(c2ccc(Cl)cc2)C1)c1ccc(Br)cc1 (single isomer, unassigned) [Compound 181]",0,0,0,69,45
"CC(C)(C)C(O)(Cn1cncn1)C1=NOC(COc2ccc(Br)cc2)C1 (single isomer, unassigned) [Compound 182]",99,96,99,100,100
"CC(C)(C)C(O)(Cn1cncn1)C1=NOC(COc2ccc(Br)cc2)C1 (single isomer, unassigned) [Compound 183]",24,35,99,100,100
"CC(C)(C)C(O)(Cn1cncn1)C1=NOC(COc2ccc(I)cc2)C1 (single isomer, unassigned) [Compound 184]",44,94,100,100,100
"CC(C)(C)C(O)(Cn1cncn1)C1=NOC(COc2ccc(I)cc2)C1 (single isomer, unassigned) [Compound 185]",0,0,100,99,100
"CCC(C)(C)C(O)(Cn1cncn1)C1=NOC(COc2ccc(Cl)cc2)C1 (single isomer, unassigned) [Compound 186]",99,66,100,100,100
"CCC(C)(C)C(O)(Cn1cncn1)C1=NOC(COc2ccc(Cl)cc2)C1 (single isomer, unassigned) [Compound 193]",9,22,93,97,99
"OC(Cn1cncn1)(C1=NOC(Cn2ccc(C(F)(F)F)n2)C1)c1ccc(Cl)cc1 (single isomer, unassigned) [Compound 194]",0,0,11,99,100
"OC(Cn1cncn1)(C1=NOC(Cn2ccc(C(F)(F)F)n2)C1)c1ccc(Cl)cc1 (single isomer, unassigned) [Compound 195]",0,0,0,100,99
"OC(Cn1cncn1)(C1=NOC(c2ccc(Cl)cc2)C1)C1CCCCC1 (single isomer, unassigned) [Compound 196]",0,12,99,100,100
"OC(Cn1cncn1)(C1=NOC(c2ccc(Cl)cc2)C1)C1CCCCC1 (single isomer, unassigned) [Compound 197]",11,0,92,98,100
"OC(Cn1cncn1)(C1=NOC(Cc2ccc(F)cc2)C1)c1ccc(Cl)cc1 (single isomer, unassigned) [Compound 198]",0,0,81,100,100
"OC(Cn1cncn1)(C1=NOC(Cc2ccc(Cl)cc2)C1)c1ccc(Cl)cc1 (single isomer, unassigned) [Compound 199]",0,0,86,100,100
"OC(Cn1cncn1)(C1=NOC(Cc2ccc(F)cc2)C1)c1ccc(Cl)cc1 (single isomer, unassigned) [Compound 200]",0,16,11,99,99
"OC(Cn1cncn1)(C1=NOC(Cc2ccc(Cl)cc2)C1)c1ccc(Cl)cc1 (single isomer, unassigned) [Compound 201]",0,1,50,96,100
"OC(Cn1cncn1)(C1=NOC(Cc2ccc(C(F)(F)F)cc2)C1)c1ccc(Cl)cc1 (single isomer, unassigned) [Compound 202]",0,21,59,99,100

# Source: patent US20160242416A1, “FUNGICIDAL ISOXAZOLINE CARBINOLS” (E I DU PONT DE NEMOURS AND COMPANY, priority 2015, published 2016)
